Test results taken from PMC6660985 (Biopolymers, 2019).

Columns and labels:
C. neoformans = conditions: cited from earlier work
[1] = test system: C. neoformans strain H99S; assay: Synergy testing; format: cell-based, Cryptococcus neoformans; conditions: for MIC: Cryptococcus neoformans, H99S, read-out: MIC-B, Drug Alone; for MIC-B, Combination: Drug B in combination with AEC5, average of three independent experiments; for FIC index (FICi): combination of the labelled Drug B with AEC5 (Drug A); for interaction with AEC5 by FICi: combination of the labelled drug with AEC5; for change of the drug's MIC when combined with AEC5: drop of MIC, combination versus alone

SMILES | time to reduce fungal growth by 50% (C. neoformans; clinical isolates from HIV/AIDS patients) | MIC [1] | MIC-B, Combination [1] | FIC index (FICi) [1] | interaction with AEC5 by FICi [1] | change of the drug's MIC when combined with AEC5 [1] | concentration at which the compound becomes fungicidal (C. neoformans; against C. neoformans, primarily fungistatic below) | time for 50% reduction in fungal growth (C. neoformans; fluconazole against C. neoformans)
C[C@@H]1[C@H](O)[C@@H](C)/C=C/C=C/C=C/C=C/C=C/C=C/C=C/[C@H](O[C@@H]2O[C@H](C)[C@@H](O)[C@H](N)[C@@H]2O)C[C@@H]2O[C@](O)(C[C@@H](O)C[C@@H](O)[C@H](O)CC[C@@H](O)C[C@@H](O)CC(=O)O[C@H]1C)C[C@H](O)[C@H]2C(=O)O [Amphotericin B, amphotericin B] | ≥ 10 h | 0.0156 µg/mL | 0.0156 µg/mL | 1.50 | indifferent (0.5 ≤ FICi ≤ 4 indifferent) | does not change |  | 
OC(Cn1cncn1)(Cn1cncn1)c1ccc(F)cc1F [Fluconazole, fluconazole] |  | 8 µg/mL | 2 µg/mL | 0.75 | indifferent (0.5 ≤ FICi ≤ 4 indifferent) | four-fold | > 8 x MIC | 48 to 72 h
Nc1[nH]c(=O)ncc1F [Flucytosine, flucytosine] |  | 4 µg/mL | 0.25 µg/mL | 0.23 | synergistic (FICi < 0.5 synergistic) |  |  | 
